The source of these data is US7595329B2, “Benzimidazolone carboxylic acid derivatives” (Pfizer Inc, priority 2004, dated 2009).

For orientation: melting point means the temperature of the solid-liquid transition.

With `CC(C)n1c(=O)n(C(=O)NCC2CCN(CC3(C(=O)O)CCCCC3)CC2)c2ccccc21` [Example 2, 1-{[4-({[(3-isopropyl-2-oxo-2,3-dihydro-1H-benzimidazol-1-yl)carbonyl]amino}methyl)piperidin-1-yl]methyl}cyclohexanecarboxylic acid], the melting point is 151 °C.
On to `CC(C)n1c(=O)n(C(=O)NCC2CCN(CC3(C(=O)O)CCCC3)CC2)c2ccccc21` [Example 3, 1-{[4-({[(3-isopropyl-2-oxo-2,3-dihydro-1H-benzimidazol-1-yl)carbonyl]amino}methyl)piperidin-1-yl]methyl}cyclopentanecarboxylic acid], for which the melting point stood at 165 °C.
In turn, `CC(C)n1c(=O)n(C(=O)NCC2CCN(CC3(C(=O)O)CC3)CC2)c2ccccc21.Cl` had a melting point of 206 °C.
With `CC(C)n1c(=O)n(C(=O)NCC2(O)CCN(CC3(C(=O)O)CCCCC3)CC2)c2ccccc21` [Example 6, 1-{[4-hydroxy-4-({[(3-isopropyl-2-oxo-2,3-dihydro-1H-benzimidazol-1-yl)carbonyl]amino}methyl)piperidin-1-yl]methyl}cyclohexanecarboxylic acid], the melting point was determined as 184 °C.
The value for `CC(C)n1c(=O)n(C(=O)NCC2CCN(CC3(C(=O)O)CCOCC3)CC2)c2ccccc21` [Example 1, 4-{[4-({[(3-isopropyl-2-oxo-2,3-dihydro-1H-benzimidazol-1-yl)carbonyl]amino}methyl)piperidin-1-yl]methyl}tetrahydro-2H-pyran-4-carboxylic acid] was 176 °C.
